In this assay the target is T1, sterol 14-reductase (Rattus norvegicus, UniProt A0ACM8Q6X4).
T1 construct: microsome which was used as an enzyme source of sterol 14-reductase; from tissue; host or cells: liver microsomes of male Sprague-Dawley rats fed lovastatin and cholestyramine
T1 sequence (A0ACM8Q6X4 1-418): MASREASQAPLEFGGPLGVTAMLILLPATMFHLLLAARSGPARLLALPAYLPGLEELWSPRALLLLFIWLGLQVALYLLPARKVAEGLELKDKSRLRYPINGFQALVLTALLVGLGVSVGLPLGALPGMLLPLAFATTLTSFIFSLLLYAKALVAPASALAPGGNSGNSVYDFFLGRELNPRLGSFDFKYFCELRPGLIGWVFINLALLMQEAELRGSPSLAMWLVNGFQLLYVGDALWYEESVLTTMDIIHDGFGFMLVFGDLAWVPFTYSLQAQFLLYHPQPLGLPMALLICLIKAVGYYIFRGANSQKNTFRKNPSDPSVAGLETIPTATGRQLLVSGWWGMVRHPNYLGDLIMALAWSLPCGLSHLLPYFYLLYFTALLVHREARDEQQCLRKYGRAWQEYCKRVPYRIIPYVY
The assay is described as follows: Inhibition of sterol 14-reductase in rat liver microsomes. Format: biochemical. In general terms: Liver microsomes are vesicles of endoplasmic reticulum, rich in cytochrome P450 enzymes.

[1] abbreviates: read-out: Enzyme Activity (relative in vitro activity for sterol 14-reductase, IC50 class).
Where [2] appears, read: microsomes, read-out: Enzyme Activity (relative in vitro activity for sterol 14-reductase, IC50 class).

Molecules are shown by their SMILES. Like-named read-outs stand apart in the source and are kept apart here.

A word on the IC50: it is the point on the concentration scale where inhibition reaches its midpoint.

Take `CCc1c2[n+](cc3c(OCc4ccccc4C(F)(F)F)c(OC)ccc13)CCc1cc(OC)c(OC)cc1-2` [Compound No. 20, 5,6-dihydro-2,3-dimethoxybenzo[a]-13-ethyl-10-methoxy-9-(2-trifluoromethyl)benzyloxybenzo[g]quinolizinium chloride]: the IC50 under setting [1] was 10 to 100 µM.

On to `CCc1c2[n+](cc3c(OCc4cccc(C)c4)c(OC)ccc13)CCc1cc(OC)c(OC)cc1-2` [Compound No. 32, 5,6-dihydro-2,3-dimethoxybenzo[a]-13-ethyl-10-methoxy-9-(3-methyl)benzyloxybenzo[g]quinolizinium chloride], for which, under setting [1], the IC50 was greater than 100 µM.

On to `CCc1c2[n+](cc3c(OCc4c(F)c(F)c(C(F)(F)F)c(F)c4F)c(OC)ccc13)CCc1cc(O)c(O)cc1-2` [Compound No. 60, 5,6-dihydro-2,3-dihydroxybenzo[a]-13-ethyl-10-methoxy-9-(2,3,5,6-tetrafluoro-4-trifluoromethyl)benzyloxybenzo[g]quinolizinium chloride], for which the IC50 under setting [1] is less than 1 µM.

Consider `CCc1c2[n+](cc3c(OCc4cc([N+](=O)[O-])ccc4OC)c(OC)ccc13)CCc1cc(OC)c(OC)cc1-2` [Compound No. 7, 5,6-dihydro-2,3-dimethoxybenzo[a]-13-ethyl-10-methoxy-9-(2-methoxy-5-nitro)benzyloxybenzo[g]quinolizinium chloride], for which the IC50 under setting [1] was in the range of 10 to 100 µM.

As for `CCc1c2[n+](cc3c(OCc4cc(OC)c(OC)cc4[N+](=O)[O-])c(OC)ccc13)CCc1cc(OC)c(OC)cc1-2` [Compound No. 5, 5,6-dihydro-2,3-dimethoxybenzo[a]-9-(4,5-dimethoxy-2-nitro)benzyloxy-13-ethyl-10-methoxybenzo[g]-quinolizinium chloride], under setting [1], the IC50 was less than 1 µM.

As to `CCc1c2[n+](cc3c(OCc4cccc(C(F)(F)F)c4)c(OC)ccc13)CCc1cc3c(cc1-2)OCO3` [Compound No. 51, 5,6-dihydro-2,3-methylenedioxybenzo[a]-13-ethyl-10-methoxy-9-(3-trifluoromethyl)benzyloxybenzo[g]quinolizinium iodide], the IC50 under setting [1] lay in the range of 10 to 100 µM.

Consider `CCc1c2[n+](cc3c(OCc4ccccc4I)c(OC)ccc13)CCc1cc(OC)c(OC)cc1-2` [Compound No. 43, 5,6-dihydro-2,3-dimethoxybenzo[a]-13-ethyl-9-(2-iodo)benzyloxy-10-methoxybenzo[g]quinolizinium chloride], for which the IC50 under setting [1] lay in the range of 10 to 100 µM.

In the case of `CCOc1cc2c(cc1OCC)-c1c(CC)c3ccc(OC)c(OCc4ccc(C(C)(C)C)cc4)c3c[n+]1CC2` [Compound No. 55, 5,6-dihydro-2,3-diethoxybenzo[a]-9-[4-(tert-butyl)benzyloxy]-13-ethyl-10-methoxybenzo[g]quinolizinium chloride], the IC50 under setting [1] was less than 1 µM.

Take `CCc1c2[n+](cc3c(OCc4cc5c(cc4Cl)OCO5)c(OC)ccc13)CCc1cc(OC)c(OC)cc1-2` [Compound No. 40, 5,6-dihydro-2,3-dimethoxybenzo[a]-9-(6-chloro)-piperonyloxy-13-ethyl-10-methoxybenzo[g]quinolizinium chloride]: the 50% inhibitory concentration (IC50) under setting [1] is greater than 100 µM.

Take `CCc1c2[n+](cc3c(OCc4ccc(F)cc4C(F)(F)F)c(OC)ccc13)CCc1cc(OC)c(OC)cc1-2` [Compound No. 4, 5,6-dihydro-2,3-dimethoxybenzo[a]-13-ethyl-9-[4-fluoro-2-(trifluoromethyl)benzyloxy]-10-methoxybenzo[g]-quinolizinium chloride]: under setting [1], the IC50 lay in the range of 10 to 100 µM.

For `CCc1c2[n+](cc3c(OCc4ccc([N+](=O)[O-])o4)c(OC)ccc13)CCc1cc(OC)c(OC)cc1-2` [Compound No. 39, 5,6-dihydro-2,3-dimethoxybenzo[a]-13-ethyl-10-methoxy-9-(5-nitrofuran-2-yl)methoxybenzo[g]quinolizinium chloride], the IC50 under setting [1] is 10 to 100 µM.

With `CCc1c2[n+](cc3c(OCc4ccc(C)cc4)c(OC)ccc13)CCc1cc(OC)c(OC)cc1-2` [Compound No. 31, 5,6-dihydro-2,3-dimethoxybenzo[a]-13-ethyl-10-methoxy-9-(4-methyl)benzyloxybenzo[g]quinolizinium chloride], under setting [1], the IC50 was greater than 100 µM.

As to `C=C(C)COc1c(OC)ccc2c(CC)c3[n+](cc12)CCc1cc(OC)c(OC)cc1-3` [Compound No. 41, 5,6-dihydro-2,3-dimethoxybenzo[a]-13-ethyl-10-methoxy-9-(2-methyl)propenoxybenzo[g]quinolizinium chloride], under setting [1], the IC50 was greater than 100 µM.

For the compound `CCc1c2[n+](cc3c(OCc4cccc(Br)c4)c(OC)ccc13)CCc1cc(OC)c(OC)cc1-2` [Compound No. 34, 5,6-dihydro-2,3-dimethoxybenzo[a]-9-(3-bromo)-benzyloxy-13-ethyl-10-methoxybenzo[g]quinolizinium chloride], the IC50 under setting [1] is 10 to 100 µM.

Consider `CCOc1cc2c(cc1OCC)-c1c(CC)c3ccc(OCC)c(OCc4c(F)c(F)c(C(F)(F)F)c(F)c4F)c3c[n+]1CC2` [Compound No. 64, 5,6-dihydro-2,3-diethoxybenzo[a]-10-ethoxy-13-ethyl-9-(2,3,5,6-tetrafluoro-4-trifluoromethyl)-benzyloxy benzo[g]quinolizinium chloride], for which the half-maximal inhibitory concentration (IC50) under setting [1] was in the range of 10 to 100 µM.

For `C=C(COc1c(OC)ccc2c(CC)c3[n+](cc12)CCc1cc(OC)c(OC)cc1-3)C[Si](C)(C)C` [Compound No. 44, 5,6-dihydro-2,3-dimethoxybenzo[a]-13-ethyl-10-methoxy-9-[(3-trimethylsilyl)propen-2-yl]oxybenzo[g]quinolizinium chloride], the 50% inhibitory concentration (IC50) (Enzyme Activity (relative in vitro activity for sterol 14-reductase, IC50 class)) is greater than 100 µM.

Take `CCc1c2[n+](cc3c(OCc4ccc(C)cc4C)c(OC)ccc13)CCc1cc(OC)c(OC)cc1-2` [Compound No. 28, 5,6-dihydro-2,3-dimethoxybenzo[a]-9-(2,4-dimethyl)benzyloxy-13-ethyl-10-methoxybenzo[g]quinolizinium chloride]: the IC50 under setting [1] was greater than 100 µM.

As for `CCc1c2[n+](cc3c(OCc4cc(OC)c(OC)cc4[N+](=O)[O-])c(OC)ccc13)CCc1cc3c(cc1-2)OCO3` [Compound No. 48, 5,6-dihydro-2,3-methylenedioxybenzo[a]-9-(4,5-dimethoxy-2-nitro)benzyloxy-13-ethyl-10-methoxybenzo[g]-quinolizinium iodide], the half-maximal inhibitory concentration (IC50) under setting [1] was less than 1 µM.

Turning to `CCc1c2[n+](cc3c(OCc4cccc(OC)c4)c(OC)ccc13)CCc1cc(OC)c(OC)cc1-2` [Compound No. 12, 5,6-dihydro-2,3-dimethoxybenzo[a]-13-ethyl-10-methoxy-9-(3-methoxy)benzyloxybenzo[g]quinolizinium chloride], the IC50 under setting [1] is greater than 100 µM.

As to `CCc1c2[n+](cc3c(OCc4cc(C)ccc4[N+](=O)[O-])c(OC)ccc13)CCc1cc(OC)c(OC)cc1-2` [Compound No. 25, 5,6-dihydro-2,3-dimethoxybenzo[a]-13-ethyl-10-methoxy-9-(5-methyl-2-nitro)benzyloxybenzo[g]quinolizinium chloride], the IC50 under setting [1] was greater than 100 µM.

On to `CCc1c2[n+](cc3c(OCc4ccc(C(C)(C)C)cc4)c(OC)ccc13)CCc1cc3c(cc1-2)OCO3` [Compound No. 46, 5,6-dihydro-2,3-methylenedioxybenzo[a]-9-[(4-tert-butyl)benzyloxy]-13-ethyl-10-methoxybenzo[g]quinolizinium iodide], for which the IC50 under setting [1] is less than 1 µM.

In the case of `CCOc1cc2c(cc1OCC)-c1c(CC)c3ccc(OCC)c(OCc4cccc(C(F)(F)F)c4)c3c[n+]1CC2` [Compound No. 63, 5,6-dihydro-2,3-diethoxybenzo[a]-10-ethoxy-13-ethyl-9-(3-trifluoromethyl)benzyloxyenzo[g]quinolizinium chloride], the IC50 under setting [1] lay in the range of 10 to 100 µM.

Turning to `CCc1c2[n+](cc3c(OCc4ccc(C)c([N+](=O)[O-])c4)c(OC)ccc13)CCc1cc(OC)c(OC)cc1-2` [Compound No. 6, 5,6-dihydro-2,3-dimethoxybenzo[a]-13-ethyl-10-methoxy-9-(4-methyl-3-nitro)benzyloxybenzo[g]quinolizinium chloride], the IC50 under setting [2] was less than 1 µM.

In the case of `CCc1c2[n+](cc3c(OCc4ccc(C)c([N+](=O)[O-])c4)c(OC)ccc13)CCc1cc3c(cc1-2)OCO3` [Compound No. 49, 5,6-dihydro-2,3-methylenedioxybenzo[a]-13-ethyl-10-methoxy-9-(4-methyl-3-nitro)benzyloxybenzo[g]quinolizinium iodide], under setting [2], the 50% inhibitory concentration (IC50) lay in the range of 10 to 100 µM.

Take `CCc1c2[n+](cc3c(OCc4cccc(Cl)c4)c(OC)ccc13)CCc1cc(OC)c(OC)cc1-2` [Compound No. 18, 5,6-dihydro-2,3-dimethoxybenzo[a]-9-(3-chloro)-benzyloxy-13-ethyl-10-methoxybenzo[g]quinolizinium chloride]: the IC50 under setting [1] is 10 to 100 µM.

With `CCc1c2[n+](cc3c(OCc4cccc([N+](=O)[O-])c4C)c(OC)ccc13)CCc1cc(OC)c(OC)cc1-2` [Compound No. 24, 5,6-dihydro-2,3-dimethoxybenzo[a]-13-ethyl-10-methoxy-9-(2-methyl-3-nitro)benzyloxybenzo[g]quinolizinium chloride], under setting [1], the IC50 is greater than 100 µM.

For `CCc1c2[n+](cc3c(OCc4ccc5ccccc5n4)c(OC)ccc13)CCc1cc(OC)c(OC)cc1-2` [Compound No. 36, 5,6-dihydro-2,3-dimethoxybenzo[a]-13-ethyl-10-methoxy-9-(quinolin-2-yl)methoxybenzo[g]quinolizinium chloride], under setting [1], the half-inhibitory concentration (IC50) was 10 to 100 µM.

For the origin of these results see US6028197A, “Dibenzo[a,g]quinolizinium derivatives and the salts thereof” (Hanwha Corporation, priority 1998, dated 2000).
